*1 amine or outer side, *2 acyl side, *3 side chain or, on linkers, in order; H or OH if unused. Where a SMILES comes first, the peptide text is derived from it. Side-chain parts run from the residue outwards. [ ]: non-standard residue; d: D form. The star is where a group is joined. C20 diacid = O=C(O)CCCCCCCCCCCCCCCCCCC(=O)*; C18 diacid = O=C(O)CCCCCCCCCCCCCCCCC(=O)*; γGlu = O=C(O)[C@H](CCC(=O)[*:2])N[*:1]; NMeI = CC[C@H](C)[C@H](NC)C(=O)O; AEEA = NCCOCCOCC(=O)O; Aib = CC(C)(N)C(=O)O
How the values were obtained:
[1] = Pharmacokinetics in male Sprague Dawley rats after subcutaneous administration; assay type: in vivo; conditions: plasma, rat, SC, 0.05 mg/kg
[2] = In vitro subcutaneous tissue supernatant (SCts) stability and metabolite identification, rat; assay type: in vitro ADME; set-up: remaining at 2 h: dose or concentration left out as unconfirmed; conditions: male, Sprague Dawley; rat subcutaneous tissue supernatant (SCts), 37° C, 2 h
Sprague Dawley rats = test: Effect on systolic blood pressure, telemetry in Sprague Dawley rats; assay type: in vivo, rat; conditions: 0.1 mg/kg SC
Summary of the method: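 Values are % change from a 1 h pre-dose baseline in systolic pressure, tracked by telemetry for up to 48 hours after a single 0.1 mg/kg subcutaneous dose. Rats (Sprague Dawley, n=2 per peptide) carried aortic catheters and recovered at least 10 days post-surgery; duration of action marks the last time point still showing an effect.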

[3] = Chemical stability in buffer (pH 7.4 / pH 4.5), % purity loss; assay type: physicochemical; conditions: 100 mM phosphate buffer pH 7.4; 40° C. vs 5° C.; 14 or 28 days
Summary of the method: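 LC-UV gave % loss after 14 or 28 days of storage at 5 °C or 40 °C. Samples were diluted supernatants from compound incubated 1 h at room temperature at 10 mg/mL target, in 100 mM acetate pH 4.5 or 100 mM phosphate pH 7.4.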

rat CRF2 a = biological target: T1, rat CRF2 a (Rattus norvegicus, UniProt P47866); test: Activity at rat CRF2 a, cAMP assay in A7R5 rat aortic smooth muscle cells; assay type: cell-based; conditions: 0% HSA, 100% = Sauvagine at 100 nM
T1 construct: host or cells: A7R5 rat aortic smooth muscle cells
Method: The A7R5 rat aortic smooth muscle cell line used in this study was purchased from ATCC.
Cells were grown in a 10 cm dish at 37° C./5% CO2 in medium (DMEM/10% FBS) to near confluence. At that stage, cells were harvested, resuspended to 10 million/mL in culture medium and with 5% DMSO. 1 mL vial aliquots were slowly frozen to −80° C. in isopropanol and then transferred in liquid nitrogen for storage.
These vials were used to run the experiment following the procedure reported in the previous paragraph, except for the compound used in the control well to define the 100% activation (Sauvagine at 100 nM) and the cell density (final cell density: 5000 cells/well).

CFR1R receptor = biological target: T2, CFR1R receptor (Homo sapiens, UniProt P34998); test: Activity at anti-target CFR1R receptor, cAMP assay in CRF1R-overexpression CHO-K1 cells; assay type: cell-based; conditions: 100% = Sauvagine at 100 nM; for EC50: cAMP
T2 construct: host or cells: CHO-K1 (clone 2)
T2 sequence (P34998 24-415): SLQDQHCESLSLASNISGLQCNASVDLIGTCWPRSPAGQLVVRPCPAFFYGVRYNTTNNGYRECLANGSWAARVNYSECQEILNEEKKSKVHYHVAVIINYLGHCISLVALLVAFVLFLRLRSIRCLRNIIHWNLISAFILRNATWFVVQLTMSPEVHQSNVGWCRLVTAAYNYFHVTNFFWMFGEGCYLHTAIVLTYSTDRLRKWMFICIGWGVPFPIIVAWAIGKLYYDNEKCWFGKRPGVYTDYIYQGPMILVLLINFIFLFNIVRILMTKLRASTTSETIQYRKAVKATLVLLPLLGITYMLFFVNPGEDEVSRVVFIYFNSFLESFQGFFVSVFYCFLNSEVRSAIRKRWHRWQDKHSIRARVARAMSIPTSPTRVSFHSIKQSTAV
Summary of the method: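 Clone 2; cryopreserved stocks (10% DMSO); 4000 cells/well final; 100% activation = Sauvagine 100 nM; otherwise as TeloHAEC protocol.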

human CRF2a receptor = biological target: T3, human CRF2a receptor (Homo sapiens, UniProt Q13324); test: Activity at human CRF2a receptor, cAMP functional assay in TeloHEAC cells; assay type: cell-based; conditions: TeloHEAC cells stably expressing human CRF2a receptor, relative to urocortin 2 (100 nM = 100%)
T3 construct: expressed in transfected cells; host or cells: TeloHEAC cells
T3 sequence (Q13324 1-411): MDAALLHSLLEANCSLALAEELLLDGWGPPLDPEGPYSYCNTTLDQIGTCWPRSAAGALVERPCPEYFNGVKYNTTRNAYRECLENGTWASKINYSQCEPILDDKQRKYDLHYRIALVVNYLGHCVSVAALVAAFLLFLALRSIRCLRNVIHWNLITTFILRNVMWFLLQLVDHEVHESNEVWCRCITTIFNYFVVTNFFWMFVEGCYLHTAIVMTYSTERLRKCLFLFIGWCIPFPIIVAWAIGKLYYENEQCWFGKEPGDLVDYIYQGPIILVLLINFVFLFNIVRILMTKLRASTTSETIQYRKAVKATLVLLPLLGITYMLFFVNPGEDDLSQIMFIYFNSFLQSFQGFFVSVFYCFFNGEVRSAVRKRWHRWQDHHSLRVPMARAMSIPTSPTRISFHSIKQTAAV
Summary of the method: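 TeloHEAC cells stably expressing human CRF2a (10000 cells/well, suspended in HBSS/20 mM HEPES with 2 mM IBMX) were exposed to compounds for 30 min at 37 °C. cAMP was read as the 665/620 nm fluorescence ratio after 1 h at room temperature. EC50 was derived relative to 100 nM urocortin 2, set as 100%.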

T1 sequence (P47866 27-431 isoform P47866-2 limits assumed): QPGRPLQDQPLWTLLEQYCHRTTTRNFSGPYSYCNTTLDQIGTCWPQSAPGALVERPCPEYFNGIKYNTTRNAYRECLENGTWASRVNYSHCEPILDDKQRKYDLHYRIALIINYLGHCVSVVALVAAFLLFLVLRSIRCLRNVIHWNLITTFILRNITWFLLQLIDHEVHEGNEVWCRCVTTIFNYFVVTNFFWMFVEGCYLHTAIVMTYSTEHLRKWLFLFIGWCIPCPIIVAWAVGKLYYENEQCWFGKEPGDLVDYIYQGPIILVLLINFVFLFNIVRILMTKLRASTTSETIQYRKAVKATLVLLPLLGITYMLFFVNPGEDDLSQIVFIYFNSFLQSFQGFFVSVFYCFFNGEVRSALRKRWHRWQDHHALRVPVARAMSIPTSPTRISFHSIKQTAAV

Structure (SMILES) | AUC(0-t) [1] [ng·h/mL] | Cmax [1] [ng/mL] | Tmax [1] [h] | half-life [1] [h] | remaining at 2 h [2] [%] | Systolic blood pressure (Mean) % change from baseline, 8 h (Sprague Dawley rats; 8 h, n=2) [%] | Systolic blood pressure (Mean) % change from baseline, 12 h (Sprague Dawley rats; 12 h, n=2) [%] | Systolic blood pressure (Mean) % change from baseline, 24 h (Sprague Dawley rats; 24 h, n=2) [%] | Duration of action (Sprague Dawley rats; last time point with an effect on BP still observed) [h] | Buffer stability pH 7.4 % purity loss [3] | EC50 (rat CRF2 a) [nM] | Emax (% I) (CFR1R receptor) | EC50 (CFR1R receptor) [nM] | EC50 (human CRF2a receptor) [nM]
CC[C@H](C)[C@H](NC)C(=O)N[C@H](C(=O)N[C@@H](CC(C)C)C(=O)N[C@@H](CO)C(=O)N[C@@H](CC(C)C)C(=O)N[C@@H](CC(=O)O)C(=O)N[C@@H](C(=O)N1CCC[C@H]1C(=O)N[C@H](C(=O)N[C@@H](CCCCN)C(=O)N[C@@H](CC(C)C)C(=O)N[C@@H](CCCCNC(=O)CC[C@H](NC(=O)CCCCCCCCCCCCCCCCC(=O)O)C(=O)O)C(=O)N[C@@H](CCCCN)C(=O)N[C@H](C(=O)N[C@@H](CC(C)C)C(=O)N[C@@H](CC(C)C)C(=O)N[C@@H](CCC(=O)O)C(=O)N[C@@H](CCC(N)=O)C(=O)N[C@@H](CCC(=O)O)C(=O)N[C@@H](CCCCN)C(=O)N[C@@H](CCC(N)=O)C(=O)N[C@@H](CCCCN)C(=O)N[C@@H](C)C(=O)N[C@@H](CCC(N)=O)C(=O)N[C@@H](CCCNC(=N)N)C(=O)N[C@@H](CCC(=O)O)C(=O)N[C@@H](CCC(N)=O)C(=O)N[C@@H](C)C(=O)N[C@@H](CCC(=O)O)C(=O)N[C@H](C(=O)N[C@@H](CC(N)=O)C(=O)NC(C)(C)C(=O)N[C@@H](CCC(N)=O)C(=O)N[C@H](C(=O)N[C@@H](CC(C)C)C(=O)N[C@@H](C)C(=O)N[C@@H](CCC(N)=O)C(=O)N[C@H](C(N)=O)C(C)C)[C@@H](C)CC)[C@@H](C)O)[C@@H](C)CC)[C@@H](C)CC)C(C)C)C(C)C [compound 144] (H-[NMeI]VLSLD[dV]PIKLK([γGlu-C18 diacid])KILLEQEKQKAQREQAETN[Aib]QILAQV-NH2) | 1710 | 105 | 6 | 12.6 | 74 | −22 | −17 | 1 | 23 | 0.0/Not Tested % | 0.06 |  |  | 
CC[C@H](C)[C@H](NC(C)=O)C(=O)N[C@H](C(=O)N[C@@H](CC(C)C)C(=O)N[C@@H](CO)C(=O)N[C@@H](CC(C)C)C(=O)N[C@@H](CC(=O)O)C(=O)N[C@@H](C(=O)N1CCC[C@H]1C(=O)N[C@H](C(=O)N[C@@H](CCCCN)C(=O)N[C@@H](CC(C)C)C(=O)N[C@@H](CCCCNC(=O)COCCOCCNC(=O)CC[C@H](NC(=O)CCCCCCCCCCCCCCCCCCC(=O)O)C(=O)O)C(=O)N[C@@H](CCCCN)C(=O)N[C@H](C(=O)N[C@@H](CC(C)C)C(=O)N[C@@H](CC(C)C)C(=O)N[C@@H](CCC(=O)O)C(=O)N[C@@H](CCC(N)=O)C(=O)N[C@@H](CCC(=O)O)C(=O)N[C@@H](CCCCN)C(=O)N[C@@H](CCC(N)=O)C(=O)N[C@@H](CCCCN)C(=O)N[C@@H](C)C(=O)N[C@@H](CCC(N)=O)C(=O)N[C@@H](CCCNC(=N)N)C(=O)N[C@@H](CCC(=O)O)C(=O)N[C@@H](CCC(N)=O)C(=O)N[C@@H](C)C(=O)N[C@@H](CCC(=O)O)C(=O)N[C@H](C(=O)N[C@@H](CC(N)=O)C(=O)NC(C)(C)C(=O)N[C@@H](CCC(N)=O)C(=O)N[C@H](C(=O)N[C@@H](CC(C)C)C(=O)N[C@@H](C)C(=O)N[C@@H](CCC(N)=O)C(=O)N[C@H](C(N)=O)C(C)C)[C@@H](C)CC)[C@@H](C)O)[C@@H](C)CC)[C@@H](C)CC)C(C)C)C(C)C [compound 232] (Ac-IVLSLD[dV]PIKLK([AEEA-γGlu-C20 diacid])KILLEQEKQKAQREQAETN[Aib]QILAQV-NH2) |  |  |  |  |  |  |  |  |  |  | 0.4 | 13 | > 250 | 0.12
CC[C@H](C)[C@H](NC(C)=O)C(=O)N[C@H](C(=O)N[C@@H](CC(C)C)C(=O)N[C@@H](CO)C(=O)N[C@@H](CC(C)C)C(=O)N[C@@H](CC(=O)O)C(=O)N[C@@H](C(=O)N1CCC[C@H]1C(=O)N[C@H](C(=O)N[C@@H](CCCCN)C(=O)N[C@@H](CC(C)C)C(=O)N[C@@H](CCCCNC(=O)COCCOCCNC(=O)COCCOCCNC(=O)CC[C@H](NC(=O)CCCCCCCCCCCCCCCCCCC(=O)O)C(=O)O)C(=O)N[C@@H](CCCCN)C(=O)N[C@H](C(=O)N[C@@H](CC(C)C)C(=O)N[C@@H](CC(C)C)C(=O)N[C@@H](CCC(=O)O)C(=O)N[C@@H](CCC(N)=O)C(=O)N[C@@H](CCC(=O)O)C(=O)N[C@@H](CCCCN)C(=O)N[C@@H](CCC(N)=O)C(=O)N[C@@H](CCCCN)C(=O)N[C@@H](CCCCN)C(=O)N[C@@H](CCC(N)=O)C(=O)N[C@@H](CCCNC(=N)N)C(=O)N[C@@H](CCC(=O)O)C(=O)N[C@@H](CCC(N)=O)C(=O)N[C@@H](C)C(=O)N[C@@H](CCC(=O)O)C(=O)N[C@H](C(=O)N[C@@H](CC(N)=O)C(=O)NC(C)(C)C(=O)N[C@@H](CCC(N)=O)C(=O)N[C@H](C(=O)N[C@@H](CC(C)C)C(=O)N[C@@H](C)C(=O)N[C@@H](CCC(N)=O)C(=O)N[C@H](C(N)=O)C(C)C)[C@@H](C)CC)[C@@H](C)O)[C@@H](C)CC)[C@@H](C)CC)C(C)C)C(C)C [compound 238] (Ac-IVLSLD[dV]PIKLK([AEEA-AEEA-γGlu-C20 diacid])KILLEQEKQKKQREQAETN[Aib]QILAQV-NH2) |  |  |  |  |  |  |  |  |  |  | 0.09 | 12 | > 250 | 0.11
CC[C@H](C)[C@H](NC(C)=O)C(=O)N[C@H](C(=O)N[C@@H](CC(C)C)C(=O)N[C@@H](CO)C(=O)N[C@@H](CC(C)C)C(=O)N[C@@H](CC(=O)O)C(=O)N[C@@H](C(=O)N1CCC[C@H]1C(=O)N[C@H](C(=O)N[C@@H](CCCCN)C(=O)N[C@@H](CC(C)C)C(=O)N[C@@H](CCCCNC(=O)CC[C@H](NC(=O)CC[C@H](NC(=O)CCCCCCCCCCCCCCCCCCC(=O)O)C(=O)O)C(=O)O)C(=O)N[C@@H](CCCCN)C(=O)N[C@H](C(=O)N[C@@H](CC(C)C)C(=O)N[C@@H](CC(C)C)C(=O)N[C@@H](CCC(=O)O)C(=O)N[C@@H](CCC(N)=O)C(=O)N[C@@H](CCC(=O)O)C(=O)N[C@@H](CCCCN)C(=O)N[C@@H](CCC(N)=O)C(=O)N[C@@H](CCCCN)C(=O)N[C@@H](CCCCN)C(=O)N[C@@H](CCC(N)=O)C(=O)N[C@@H](CCCNC(=N)N)C(=O)N[C@@H](CCC(=O)O)C(=O)N[C@@H](CCC(N)=O)C(=O)N[C@@H](C)C(=O)N[C@@H](CCC(=O)O)C(=O)N[C@H](C(=O)N[C@@H](CC(N)=O)C(=O)NC(C)(C)C(=O)N[C@@H](CCC(N)=O)C(=O)N[C@H](C(=O)N[C@@H](CC(C)C)C(=O)N[C@@H](C)C(=O)N[C@@H](CCC(N)=O)C(=O)N[C@H](C(N)=O)C(C)C)[C@@H](C)CC)[C@@H](C)O)[C@@H](C)CC)[C@@H](C)CC)C(C)C)C(C)C [compound 243] (Ac-IVLSLD[dV]PIKLK([γGlu-γGlu-C20 diacid])KILLEQEKQKKQREQAETN[Aib]QILAQV-NH2) |  |  |  |  |  |  |  |  |  |  | 0.09 | 8 | > 250 | 0.13

— patent US20260001928A1 (CORTERIA PHARMACEUTICALS, priority 2022, published 2026)
